# Data taken from patent publication US9120779B2, “Inhibitors of HCV NS5A” (PRESIDIO PHARMACEUTICALS, INC., priority 2008, dated 2015).
# Where two headings read alike, the source gives them in different places.
# Test system: HCV genotype 1b replicon in Huh 7 cells
# Experiment: HCV replicon assay (luciferase readout, 1b_Huh-Luc/Neo-ET cell line)
# Type: cell-based
# Details: Hepatitis C virus, Huh-7, 72 h
# Procedure: Biological activity of the compounds of the invention was determined using an HCV replicon assay. The 1b_Huh-Luc/Neo-ET cell line persistently expressing a bicistronic genotype 1b replicon in Huh 7 cells was obtained from R^eBLikon GMBH. This cell line was used to test compound inhibition using luciferase enzyme activity readout as a measurement of compound inhibition of replicon levels.
# On Day 1 (the day after plating), each compound is added in triplicate to the cells. Plates incubated for 72 h prior to running the luciferase assay. Enzyme activity was measured using a Bright-Glo Kit (cat. number E2620) manufactured by Promega Corporation. The following equation was used to generate a percent control value for each compound. % Control=(Average Compound Value/Average Control)*100
# The EC50 value was determined using GraphPad Prism and the following equation: Y=Bottom+(Top−Bottom)/(1+10^((Log IC50−X)*HillSlope))
# EC50 values of compounds are repeated several times in the replicon assay.
# Example compounds of the disclosed invention are illustrated in Tables 1-9 attached as appendices. The tables show inhibitory activity of many of the example compounds with respect to HCV 1b. […] The tables further provide mass spectrometry results for the synthesized example compounds.
# [1] = read-out: Inhibition of HCV genotype 1b, Table 4, 72 h incubation
# [2] = read-out: Inhibition of HCV genotype 1b, Table 3, 72 h incubation
# [3] = read-out: Inhibition of HCV genotype 1b, Table 5, 72 h incubation
# [4] = read-out: Inhibition of HCV genotype 1b, Table 1, 72 h incubation
compound,measurement,setting,value
COC(=O)N[C@H](C(=O)N[C@@H](C)c1nc2ccc(-c3ccc(-c4ccc5nc([C@@H]6CCCN6C(=O)[C@@H](c6ccccc6)N(C)C)[nH]c5c4)cc3)cc2[nH]1)C(C)C [compound 2037],EC50,[1],< 1 nM
COC(=O)N[C@@H](C(=O)N1CCC[C@H]1c1ncc(-c2cc(F)c(N3CCC(c4cnc([C@@H]5CCCN5C(=O)[C@H](NC(=O)N5CCOCC5)c5ccccc5)[nH]4)CC3)c(F)c2)[nH]1)c1ccccc1 [compound 471],EC50,[2],1 to 9.9 nM
COC(=O)N[C@H](C(=O)N1CCC[C@H]1c1ncc(-c2ccc(C34CCC(c5cnc([C@@H]6CCCN6C(=O)[C@@H](NC(=O)OC)C(C)(C)C)[nH]5)(CC3)CC4)cc2)[nH]1)C(C)(C)C [compound 2093],EC50,[3],< 1 nM
CNC(=O)N[C@@H](C(=O)N1CCC[C@H]1c1ncc(C23CCC(c4ccc(-c5cnc([C@@H]6CCCN6C(=O)[C@@H](NC(=O)OC)C(C)C)[nH]5)cc4)(CC2)CC3)[nH]1)c1ccccc1 [compound 2089],EC50,[3],< 1 nM
O=C(N[C@@H](C(=O)N1CCOC[C@H]1c1ncc(-c2cc(F)c(N3CCC(c4cnc([C@@H]5CCCN5C(=O)[C@H](NC(=O)C5CC5)c5ccccc5)[nH]4)CC3)c(F)c2)[nH]1)c1ccccc1)C1CC1 [compound 510],EC50,[2],< 1 nM
COC(=O)N[C@H](C(=O)N1CCC[C@H]1c1ncc(-c2ccc(C34CCC(c5cnc([C@@H]6CCCN6C(=O)[C@H](NC(=O)C6CC6)c6ccccc6)[nH]5)(CC3)CC4)cc2)[nH]1)C(C)C [compound 631],EC50,[3],< 1 nM
COC(=O)N[C@H](C(=O)N1CCC[C@H]1c1ncc(-c2ccc(C34CCC(c5cnc([C@@H]6CCCN6C(=O)[C@H](NC(=O)OC6CCOCC6)C(C)C)[nH]5)(CC3)CC4)cc2)[nH]1)C(C)C [compound 2084],EC50,[3],< 1 nM
COC(=O)N[C@@H](C(=O)N1CCC[C@H]1c1nc(-c2ccc(/C=C/c3ccc(-c4cnc([C@@H]5CCCN5C(=O)[C@H](NC(=O)OC)c5ccccc5)[nH]4)cc3)cc2)c[nH]1)c1ccccc1 [Compound 2120],EC50,"read-out: Inhibition of HCV genotype 1b, Table 9, 72 h incubation",< 1 nM
COC(=O)N[C@H](C(=O)N1CCC[C@H]1c1ncc(-c2ccc(-c3ccc4nc([C@@H]5CCCN5C(=O)[C@@H](NC(=O)OC)[C@@H](C)OC)[nH]c4c3)cc2)[nH]1)[C@@H](C)OC [compound 402],EC50,"read-out: Inhibition of HCV genotype 1b, Table 2, 72 h incubation",< 1 nM
CC(C)(C)OC(=O)N[C@@H](C(=O)N1CCC[C@H]1c1ncc(-c2ccc(N3CCC(c4cnc([C@@H]5CCCN5C(=O)[C@H](NC(=O)OC(C)(C)C)c5ccccc5)[nH]4)CC3)c(F)c2)[nH]1)c1ccccc1 [compound 450],EC50,[2],< 1 nM
CC(C)[C@H](NC(=O)N1CCC(=O)CC1)C(=O)N1CCC[C@H]1c1ncc(-c2ccc(C34CCC(c5cnc([C@@H]6CCCN6C(=O)[C@@H](NC(=O)N6CCC(=O)CC6)C(C)C)[nH]5)(CC3)CC4)cc2)[nH]1 [compound 638],EC50,[3],> 1000 nM
O=C(N[C@@H](C(=O)N1CCC[C@H]1c1ncc(-c2ccc(C3CCC(c4cnc([C@@H]5CCCN5C(=O)[C@H](NC(=O)C5CC5)c5ccccc5)[nH]4)CC3)cc2)[nH]1)c1ccccc1)C1CC1 (stereo partly drawn) [compound 371],EC50,[4],< 1 nM
COC(=O)N[C@H](C(=O)N1CCC[C@H]1c1nc2ccc(-c3ccc(-c4ccc5nc([C@@H]6CCCN6C(=O)[C@@H](NC(=O)OC)[C@@H](C)OC)[nH]c5c4)cc3)cc2[nH]1)[C@@H](C)OC [compound 555],EC50,[1],< 1 nM
CC(C)[C@H](NC(=O)N1CCCCC1)C(=O)N1CCC[C@H]1c1ncc(-c2ccc(C34CCC(c5cnc([C@@H]6CCCN6C(=O)[C@@H](NC(=O)N6CCCCC6)C(C)C)[nH]5)(CC3)CC4)cc2)[nH]1 [compound 639],EC50,[3],> 1000 nM
CNC(=O)N[C@H](C(=O)N1CCC[C@H]1c1ncc(-c2ccc([C@H]3CC[C@H](c4cnc([C@@H]5CCCN5C(=O)[C@H](NC(=O)OC)c5ccccc5)[nH]4)CC3)cc2)[nH]1)C(C)C [compound 2004],EC50,[4],< 1 nM
COC(=O)N[C@H](C(=O)N1CCC[C@H]1c1ncc(-c2ccc([C@H]3CC[C@H](c4cnc([C@@H]5CCCN5C(=O)[C@H](NC(=O)N5CCC(O)CC5)c5ccccc5)[nH]4)CC3)cc2)[nH]1)C(C)C [compound 2003],EC50,[4],< 1 nM
O=C(N[C@@H](C(=O)N1CCC[C@H]1C(=O)NC1CCN(c2ccc(-c3cnc([C@@H]4CCCN4C(=O)[C@H](NC(=O)C4CC4)c4ccccc4)[nH]3)cc2F)CC1)c1ccccc1)C1CC1 [compound 456],EC50,[2],< 1 nM
CC(C)[C@H](NC(=O)N1CC[C@@H](O)C1)C(=O)N1CCC[C@H]1c1ncc(-c2ccc(C34CCC(c5cnc([C@@H]6CCCN6C(=O)[C@@H](NC(=O)N6CC[C@@H](O)C6)C(C)C)[nH]5)(CC3)CC4)cc2)[nH]1 [compound 629],EC50,[3],> 1000 nM
COC(=O)N[C@H](C(=O)N1CCC[C@H]1c1nc2ccc(-c3ccc(-c4ccc5nc([C@@H]6CCCN6C(=O)[C@@H](NC(=O)OC)C(C)C)[nH]c5c4)nc3)cc2[nH]1)C(C)C [compound 556],EC50,[1],< 1 nM
O=C(N[C@@H](C(=O)N1CCC[C@H]1C(=O)N[C@H]1CC[C@H](c2ccc(-c3cnc([C@@H]4CCCN4C(=O)[C@H](NC(=O)C4CC4)c4ccccc4)[nH]3)cc2)CC1)c1ccccc1)C1CC1 [compound 350],EC50,[4],< 1 nM
COC(=O)N[C@@H](C(=O)N1CCC[C@H]1c1ncc(-c2cc(F)c(N3CCC(c4cnc([C@@H]5CCCN5C(=O)[C@H](NC(=O)C5CC5)c5ccccc5)[nH]4)CC3)c(F)c2)[nH]1)c1ccccc1 [compound 461],EC50,[2],< 1 nM
COC(=O)N[C@@H](C(=O)N1CCC[C@H]1c1ncc(C23CCC(c4ccc(-c5cnc([C@@H]6CCCN6C(=O)[C@H](NC(=O)OC)C(C)C)[nH]5)cc4)(CC2)CC3)[nH]1)c1ccccc1 [compound 621],EC50,[3],< 1 nM
CCNC(=O)N[C@@H](C(=O)N1CCC[C@H]1c1ncc(C23CCC(c4ccc(-c5cnc([C@@H]6CCCN6C(=O)[C@@H](NC(=O)OC)C(C)C)[nH]5)cc4)(CC2)CC3)[nH]1)c1ccccc1 [compound 2090],EC50,[3],< 1 nM
CC(C)[C@H](NC(=O)N1CC[C@H](O)C1)C(=O)N1CCC[C@H]1c1ncc(-c2ccc(C34CCC(c5cnc([C@@H]6CCCN6C(=O)[C@@H](NC(=O)N6CC[C@H](O)C6)C(C)C)[nH]5)(CC3)CC4)cc2)[nH]1 [compound 635],EC50,[3],< 1 nM
COC(=O)N[C@@H](C(=O)N1CCC[C@H]1c1ncc(-c2ccc(C34CCC(c5cnc([C@@H]6CCCN6C(=O)[C@@H](c6ccccc6)N(C)C)[nH]5)(CC3)CC4)cc2)[nH]1)c1ccccc1 [compound 618],EC50,[3],< 1 nM
COC(=O)N[C@@H](C(=O)N1CCC[C@H]1c1ncc(-c2cc(F)c(N3CCC(c4cnc([C@@H]5CCCN5C(=O)[C@@H](c5ccccc5)N(C)C)[nH]4)CC3)c(F)c2)[nH]1)c1ccccc1 [compound 458],EC50,[2],< 1 nM
COC(=O)N[C@H](C(=O)N1CCC[C@H]1c1ncc(C23CCC(c4ccc(-c5cnc([C@@H]6CCCN6C(=O)[C@@H](NC6CCOCC6)C(C)C)[nH]5)cc4)(CC2)CC3)[nH]1)C(C)C [compound 914],EC50,[3],10 to 999 nM
COC(=O)N[C@@H](C(=O)N1CCC[C@H]1c1ncc(-c2ccc(C34CCC(c5cnc([C@@H]6CCCN6C(=O)[C@H](C(C)C)N(C)C)[nH]5)(CC3)CC4)cc2)[nH]1)c1ccccc1 [compound 2063],EC50,[3],< 1 nM
COC(=O)N[C@@H](C(=O)N1CCC[C@H]1c1ncc(-c2ccc(C3CCC(c4cnc([C@@H]5CCCN5C(=O)[C@@H](c5ccccc5)N(C)C)[nH]4)CC3)cc2)[nH]1)c1ccccc1 (stereo partly drawn) [compound 376],EC50,[4],< 1 nM
COC(=O)N[C@H](C(=O)N1CCC[C@H]1c1ncc(-c2ccc(C34CCC(c5cnc([C@@H]6CCCN6C(=O)[C@H](NC(=O)OC6CCOCC6)c6ccccc6)[nH]5)(CC3)CC4)cc2)[nH]1)C(C)C [compound 2108],EC50,[3],< 1 nM
CCN(CC)[C@@H](C(=O)N1CCC[C@H]1c1ncc(C2CCN(c3c(F)cc(-c4cnc([C@@H]5CCCN5C(=O)[C@H](NC(=O)OC)c5ccccc5)[nH]4)cc3F)CC2)[nH]1)c1ccccc1 [compound 467],EC50,[2],< 1 nM
COC(=O)N[C@H](C(=O)N1CCC[C@H]1c1ncc(-c2ccc(C34CCC(c5cnc([C@@H]6CCCN6C(=O)[C@H](NC6CCOCC6)c6ccccc6)[nH]5)(CC3)CC4)cc2)[nH]1)C(C)C [compound 2064],EC50,[3],< 1 nM
COC(=O)N[C@H](C(=O)N1CCC[C@H]1c1ncc(C23CCC(c4ccc(-c5cnc([C@@H]6CCCN6C(=O)[C@@H](C(C)C)N(C)C)[nH]5)cc4)(CC2)CC3)[nH]1)C(C)C [compound 2070],EC50,[3],< 1 nM
COC(=O)N[C@@H](C(=O)N1CCC[C@H]1c1ncc(-c2cc(F)c(N3CCC(C)(c4cnc([C@@H]5CCCN5C(=O)[C@H](NC(=O)OC)c5ccccc5)[nH]4)CC3)c(F)c2)[nH]1)c1ccccc1 [compound 2028],EC50,[2],< 1 nM
COC(=O)N[C@H](C(=O)N1CCC[C@H]1c1ncc(-c2ccc([C@H]3CC[C@H](c4cnc([C@@H]5CCCN5C(=O)[C@H](NC(=O)OC5CCOCC5)C(C)C)[nH]4)CC3)cc2)[nH]1)C(C)C [compound 946],EC50,[4],< 1 nM
COC(=O)N[C@@H](C(=O)N1CCC[C@H]1c1ncc(C23CCC(c4ccc(-c5cnc([C@@H]6CCCN6C(=O)[C@@H](c6ccccc6)N6CCCC6)[nH]5)cc4)(CC2)CC3)[nH]1)c1ccccc1 [compound 623],EC50,[3],< 1 nM
